“Also recorded” adds a separate entry of the source.
What was measured:
[1] = tested on: A2780 (ovarian carcinoma); assay: SRB cytotoxicity assay, A2780; type: cell-based, human; details: for EC50: SRB assay, 72 h of treatment; for Selectivity index SI A2780: SI = EC50 (NIH 3T3)/EC50 (A2780)
Source text: (§1) Due to cytotoxicity evaluation, the prepared UA-DOTA conjugates were screened in rhodamine B assays employing a series of human tumor cell lines and non-malignant mouse fibroblasts (NIH 3T3).
(§2) The cell lines used are human cancer cell lines: A2780 (ovarian carcinoma), HT29 (colon adenocarcinoma), MCF-7 (breast adenocarcinoma), A375 (melanoma), FaDu (pharynx squamous cell carcinoma) and non-malignant mouse fibroblasts NIH 3T3; all cell lines were obtained from the Department of Oncology (Martin-Luther-University Halle-Wittenberg). Cultures were maintained as monolayers in RPMI 1640 medium with L-glutamine (Capricorn Scientific GmbH, Ebsdorfergrund, Germany) supplemented with 10% heat inactivated fetal bovine serum (Sigma-Aldrich Chemie GmbH, Steinheim, Germany) and penicillin/streptomycin (Capricorn Scientific GmbH, Ebsdorfergrund, Germany) at 37 °C in a humidified atmosphere with 5% CO2.
(§3) The cytotoxicity of the compounds was evaluated using the sulforhodamine-B (Kiton-Red S, ABCR) micro culture colorimetric assay. Cells were seeded into 96-well plates on day 0 at appropriate cell densities to prevent confluence of the cells during the period of experiment. After 24 h, the cells were treated with six different concentrations (1, 3, 7, 12, 20, and 30 µM) minimum. The final concentration of DMSO/DMF never exceeded 0.5%, which was non-toxic to the cells. After a 72-h treatment, the supernatant medium from the 96-well plates was discarded, the cells were fixed with 10% trichloroacetic acid (TCA) and allowed to rest at 4 °C. After 24 h fixation, the cells were washed in a strip washer and dyed with SRB solution (100 µL, 0.4%, in 1% acetic acid) for about 20 min. After dying, the plates were washed four times with 1% acetic acid to remove the excess of the dye and allowed to air-dry overnight. Tris base solution (200 µL, 10 mM) was added to each well and absorbance was measured at λ = 570 nm using a 96 well plate reader (Tecan Spectra, Crailsheim, Germany). The EC50 values were averaged from three independent experiments performed each in triplicate calculated from semi logarithmic dose response curves applying a non-linear 4P Hills-slope equation (GraphPad Prism5; variables top and bottom were set to 100 and 0, respectively).

[2] = tested on: FaDu (pharynx squamous cell carcinoma); assay: SRB cytotoxicity assay, FaDu; type: cell-based, human; details: for EC50: Homo sapiens, FaDu, SRB assay, 72 h of treatment; for Selectivity index SI FaDu: SI = EC50 (NIH 3T3)/EC50 (FaDu)
Source text: as §1, §2, §3

A375 cells [3] = assay: AO/PI dye exclusion test (fluorescence microscopy); type: cell-based, human
Method: Morphological characteristics of cell death were analyzed employing an AO/PI assay using human cancer cell line A375. Approx. 2 × 10^5 cells were seeded in cell culture flasks (25 cm^2), and the cells were allowed to grow up for 24 h. After removing of the used medium, the substance loaded fresh medium was reloaded (or a blank new medium as a control). After 24 h and 48 h, the content of the flask was collected and centrifuged (1200 rpm, 4 °C), the pellet was gently suspended in phosphate-buffered saline (PBS (w/Ca^2+ and Mg^2+), 1 mL) and centrifuged again. The PBS was removed, and the pellet gently suspended in PBS (150 µL) again. The analysis of the cells was performed using a fluorescence microscope after having mixed the cell suspension (10 µL) with a solution of AO/PI (5 µg/mL, 10 µL).

A375 cells [4] = assay: Cell cycle investigations (PI, flow cytometry); type: cell-based, human
Method: Approximately 2 × 10^5 cells (A375) were seeded in cell culture flasks (25 cm^2), and the cells were allowed to grow up for 24 h. After removing of the used medium, the substance loaded fresh medium was reloaded (or a blank fresh medium as a control). After 24 h or 48 h, respectively, only the adherent cells were harvested, centrifuged (1200 rpm, 4 °C), and washed twice with PBS ((w/w), 1 mL). The cells were counted and approximately 1 × 10^6 cells were fixed with ethanol (70%, 4 °C, 24 h). After centrifugation (4500 rpm, 4 °C) the cells were washed with PBS ((w/w), 1 mL) and centrifuged. The pellet was resuspended in 1 mL RNAse A containing PI buffer (100µL RNAse (100 mg/mL), 15 µL PI solution (1 mg/mL)) and after incubating for 30 min at room temperature in the dark, cells were analyzed using the Attune® FACS machine; collecting data from the BL-2A channel. Doublet cells were excluded from the measurements by plotting BL-2A against BL-2H. For each cell cycle distribution 20,000 events were collected in technical triplicates, each sample was measured in duplicates. Cell cycle distribution was calculated using ModFitLT™ (Verity Software House, Topsham, ME, USA).

[5] = tested on: non-malignant mouse fibroblasts NIH 3T3; assay: SRB cytotoxicity assay, NIH 3T3; type: cell-based; details: NIH3T3, 72 h of treatment
Source text: as §1, §2, §3

A375 (melanoma) = assay: SRB cytotoxicity assay, A375; type: cell-based, human; details: for EC50: Homo sapiens, A-375, SRB assay, 72 h of treatment; for Selectivity index SI A375: SI = EC50 (NIH 3T3)/EC50 (A375)
Source text: as §1, §2, §3

[6] = tested on: MCF-7 (breast adenocarcinoma); assay: SRB cytotoxicity assay, MCF-7; type: cell-based, human; details: for EC50: Homo sapiens, MCF7, SRB assay, 72 h of treatment; for Selectivity index SI MCF-7: SI = EC50 (NIH 3T3)/EC50 (MCF-7)
Source text: as §1, §2, §3

A375 cells [7] = assay: Annexin V-FITC/PI assay (flow cytometry); type: cell-based, human
Method: Approximately 2 × 10^5 cells (A375) were seeded in cell culture flasks (25 cm^2), and the cells were allowed to grow up for 24 h. After removing of the used medium, the substance loaded fresh medium was reloaded (or a blank fresh medium as a control). After 24 h and 48 h, the cells were harvested, centrifuged (1200 rpm, 4 °C), and washed twice with PBS (w/Ca^2+ and Mg^2+, 1 mL). The cells were counted and approximately 1∙10^6 cells were washed with Annexin V binding buffer (BioLegend®, San Diego, USA) and treated with propidium iodide solution (3 µL, 1 mg/mL) and Annexin V-FITC (5 µL, BioLegend®, San Diego, CA, USA) for 15 min in the dark at room temperature. After adding Annexin V binding buffer (400 µL) the suspension was analyzed using Attune® FACS machine. After gating for living cells, the data from detectors BL-1A and BL-3A were collected (20,000 events) in technical triplicates. The assay was performed in duplicates; cell distribution was calculated using Attune® Software (ThermoFisher Scientific, Braunschweig, Germany).

[8] = tested on: HT29 (colon adenocarcinoma); assay: SRB cytotoxicity assay, HT29; type: cell-based, human; details: for EC50: Homo sapiens, HT-29, SRB assay, 72 h of treatment; for Selectivity index SI HT29: SI = EC50 (NIH 3T3)/EC50 (HT29)
Source text: as §1, §2, §3

human tumor cell lines = assay: SRB cytotoxicity assay, statements over the whole cell line panel; type: cell-based; details: summary over all tumor cell lines
Source text: as §1, §2, §3

Row | SMILES | EC50 ([1]; Homo sapiens, A2780, 72 h) | Selectivity index SI A2780 [1] | EC50 [2] | Selectivity index SI FaDu [2] | EC50 [5] | EC50 (A375 (melanoma)) | Selectivity index SI A375 (A375 (melanoma)) | EC50 [6] | Selectivity index SI MCF-7 [6] | EC50 [8] | Selectivity index SI HT29 [8] | further results
1 | CC(=O)O[C@H]1CC[C@@]2(C)C(CC[C@]3(C)C2CC=C2C4[C@@H](C)[C@H](C)CC[C@]4(C(=O)N4CCN(C(=O)CN5CCN(CC(=O)OC(C)(C)C)CCN(CC(=O)OC(C)(C)C)CCN(CC(=O)OC(C)(C)C)CC5)CC4)CC[C@]23C)C1(C)C (stereo partly drawn) [compound 22, Tri-tert-butyl 2,2’,2’’-[10-[2-[4-(3β-acetyloxy-urs-12-en-28-oyl)piperazin-1-yl]-2-oxoethyl]-1,4,7,10-tetraazacyclododecane-1,4,7-triyl]triacetate] | 1700 nM | 2.42 | 3700 ± 600 nM | 1.24 | 4600 ± 1000 nM | 1500 ± 400 nM | 3.07 | 4.4 ± 0.7 µM | 1.05 | 5.7 ± 0.5 µM | 0.81 | EC50 [1]: 1900 ± 300 nM; fluorescence microscopic images versus control (A375 cells [3]; A375, 3.0 µM, 24 h): no significant differences in comparison to the control; cell morphology in fluorescence microscopic images (A375 cells [3]; A375, 3.0 µM, 48 h): ruptures of the plasma membrane; cell cycle distribution versus control (A375 cells [4]; A375, 3.0 µM, 48 h): G1/G0, G2/M, and S phase were drastically reduced; also recorded: an increased population of cells with reduced DNA content has been observed in the subG1 region; density plots versus control (A375 cells [7]; A375, 3.0 µM, 24 h): no significant differences in comparison to the control; annexin V-FITC-positive cells (A375 cells [7]; A375, 3.0 µM, 48 h): 32.9%; apoptotic cells (R4) (A375 cells [7]; A375, 3.0 µM, 48 h): 17.4%; vital cells (R3) (A375 cells [7]; A375, 3.0 µM, 48 h, control 86.0%): 66.3%
2 | CC(=O)O[C@H]1CC[C@@]2(C)C(CC[C@]3(C)C2CC=C2C4[C@@H](C)[C@H](C)CC[C@]4(C(=O)NCCNC(=O)CN4CCN(CC(=O)OC(C)(C)C)CCN(CC(=O)OC(C)(C)C)CCN(CC(=O)OC(C)(C)C)CC4)CC[C@]23C)C1(C)C (stereo partly drawn) [compound 24, Tri-tert-butyl 2,2’,2’’-[10-[2-[2-(3β-acetyloxy-urs-12-en-28-oylamino)ethyl]amino-2-oxoethyl]-1,4,7,10-tetraazacyclododecane-1,4,7-triyl]triacetate] | 1700 ± 100 nM | 0.82 | 2000 ± 200 nM | 0.70 | 1400 ± 100 nM | 2000 ± 100 nM | 0.70 | 1.8 ± 0.1 µM | 0.78 | 2.3 ± 0.3 µM | 0.61 | cell morphology in fluorescence microscopic images (A375 cells [3]; A375, 4.0 µM, 24 h): vital cells (green staining) with some of them having ruptured cell membranes; cell cycle distribution versus control (A375 cells [4]; A375, 4.0 µM, 24 h): decreased number of cells in G1/G0, G2/M, as well as in S phase; also recorded: a large population of cells has been shifted into the subG1 region; annexin V-FITC-positive cells (A375 cells [7]; A375, 4.0 µM, 24 h): 63%; apoptotic cells (R4) (A375 cells [7]; A375, 4.0 µM, 24 h): 51.9%; vital cells (R3) (A375 cells [7]; A375, 4.0 µM, 24 h, control 86.1%): 36.7%; EC50 (human tumor cell lines): < 2500 nM

From paper PMC6630699, “Synthesis and Cytotoxicity Evaluation of DOTA-Conjugates of Ursolic Acid” (Molecules, 2019)
